Test results taken from patent US12145923B2, “Tetrahydroisoquinoline compound, preparation method therefor, pharmaceutical composition containing same, and use thereof” (SHANGHAI INSTITUTE OF MATERIA MEDICA, CHINESE ACADEMY OF …, priority 2018, dated 2024).
Like-named read-outs stand apart in the source and are kept apart here.

Key:
[1] = target: Human PDE4D catalytic domain (Homo sapiens (Human), UniProt Q08499); assay: Scintillation Proximity Assay (SPA), inhibition of PDE4D catalytic domain activity; format: biochemical; details: for inhibition at 1 µM: read-out: PDE4D enzyme activity inhibition rate %; for IC50: PDE4D, unit given as mM, read-out: IC50
Sequence of Human PDE4D catalytic domain (Q08499 386-715): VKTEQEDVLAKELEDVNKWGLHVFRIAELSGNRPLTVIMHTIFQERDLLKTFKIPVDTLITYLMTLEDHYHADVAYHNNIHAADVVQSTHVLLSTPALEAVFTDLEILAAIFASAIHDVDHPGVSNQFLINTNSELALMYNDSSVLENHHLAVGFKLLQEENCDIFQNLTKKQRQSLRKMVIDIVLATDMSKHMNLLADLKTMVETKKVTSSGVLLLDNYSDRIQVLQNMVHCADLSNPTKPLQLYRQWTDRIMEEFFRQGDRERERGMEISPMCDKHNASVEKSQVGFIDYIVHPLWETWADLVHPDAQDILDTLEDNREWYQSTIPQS
Protocol: The scintillation Proximity Assay (SPA) method was used to determine the inhibitory effect of compounds on the activity of PDE4D catalytic domain. Human PDE4D catalytic domain protein was obtained by expression and purification in E. coli. […] [^3H]-cAMP, scintillation beads (RPNQO150, Perkin Elmer), and 96-well scintillation microplates (Isoplate-96, Perkin Elmer) were purchased from Perkin Elmer Company.
Finally, 10 μl [^3H]-cAMP (0.005 μCi/μl) was added and incubated for 30 min at 30° C. in a water bath. 50 μl SPA beads was added to quench the reaction, shaked appropriately, and stood for 20 minutes. A microplate scintillation counter was used.

[2] = system: TNF-α secretion in PBMC; assay: Inhibition of LPS-stimulated TNF-α secretion in PBMC (ELISA); format: cell-based; details: Homo sapiens; for inhibition at 1 µM / inhibition at 10 µM: read-out: Inhibition rate %; for IC50: read-out: IC50
[3] = system: RAW 264.7 cells; assay: Cytotoxicity on RAW 264.7 cells (CCK-8 method); format: cell-based, mouse
Protocol: Mouse RAW 264.7 cells were purchased from American Type Culture Collection (Manassas, VA, USA), and cultivated in DMEM culture medium (Hyclone, South Logan, UT, USA) containing 10% fetal bovine serum (Hyclone, South Logan, UT, USA). Cells were collected and counted before use, and inoculated in a 96-well plate (Corning, NY, USA) at 1×10^5/well. […] 20 μl of CCK-8 solution (Dojindo, Kumamoto, Japan) was added at 30 min before the end of the culture. After the cultivation was ended, the absorbance OD value was measured at 450 nm (reference 650 nm) on amicroplate reader (Molecular Devices, Sunnyvale, CA, USA). The toxicity of the compound on RAW 264.7 cells was calculated by dividing the OD value of the test sample by the OD value of the cell control well, which was labeled as the cell survival rate M %.

[4] = system: tumor necrosis factor-α secretion in RAW 264.7 cells; assay: Inhibition of LPS-stimulated tumor necrosis factor-α secretion in RAW 264.7 cells (ELISA); format: cell-based, mouse; details: Mus musculus, RAW264.7, 4 h, read-out: Tumor necrosis factor-α inhibition rate/%
Protocol: After the activation by bacterial lipopolysaccharide (LPS), various inflammatory mediators such as tumor necrosis factor-α will be released; Phosphodiesterase PDE4 is also expressed in macrophages, and the inhibitory activity of the compound on phosphodiesterase PDE4 can be reflected by detecting the secretion of tumor necrosis factor-α.
Under the stimulation of 1 μg/ml LPS (L5886, Sigma, St. Louis, MO, USA), the cells were cultured in a 37° C., 5% CO2 incubator for 4 h. The background control with no stimulant and stimulation control wells were also set, with a total volume of 200 μl. The culture supernatant was collected by centrifugation, and the secretion level of tumor necrosis factor-α in the culture supernatant was detected by enzyme-linked immunosorbent assay. The tumor necrosis factor-α detection kit was purchased from BD Pharmingen (San Diego, CA, USA).

Structure (SMILES)	inhibition at 1 µM ([1]; Compound concentration: 1 μM)	inhibition at 1 µM ([2]; TNF-α secretion in PBMC, 1 μM)	inhibition at 10 µM ([2]; TNF-α secretion in PBMC, 10 μM)	Cell survival rate/% ([3]; RAW 264.7, 0.5 μM)	Cell survival rate/% ([3]; RAW 264.7, 5 μM)	Cell survival rate/% ([3]; RAW 264.7, 50 μM)	inhibition at 0.5 µM ([4]; RAW 264.7, 0.5 μM)	inhibition at 5 µM ([4]; RAW 264.7, 5 μM)	inhibition at 50 µM ([4]; RAW 264.7, 50 μM)	IC50 [1]	IC50 ([2]; TNF-α secretion in PBMC)	inhibition at 1 µM [1]	inhibition at 1 µM ([2]; PBMC)	inhibition at 10 µM ([2]; PBMC)	inhibition at 0.5 µM [4]	inhibition at 5 µM [4]	inhibition at 50 µM [4]
COc1cc2c(cc1OC)[C@H](CCc1c[nH]c3ccccc13)N(C(=O)C(F)(F)F)CC2 [(S)-B10, (S)-1-(1-(2-(1H-indol-3-yl)ethyl)-6,7-dimethoxy-3,4-dihydroisoquinoline-2(1H)-yl)-2,2,2-trifluoroethane-1-one]	29.5%	19.9%	59.6%	89.2%	84.9%	93.8%	-3%	-27.9%	33.7%								
COCC(=O)N1CCc2cc(OC)c(OC)cc2[C@@H]1CCc1c[nH]c2ccccc12 [(S)-B11, (S)-1-(1-(2-(1H-indol-3-yl)ethyl)-6,7-dimethoxy-3,4-dihydroisoquinoline-2(1H)-yl)-2-methoxyethane-1-one]	82.9%	60.1%	90.7%	110.9%	111.2%	102.2%	-7.8%	1.1%	51.3%	0.00019 mM	240 nM						
CCOc1cc2c(cc1OC)CCN(C(=O)COC)[C@H]2CCc1c[nH]c2ccccc12 [(S)-B12, (S)-1-(1-(2-(1H-indol-3-yl)ethyl)-7-ethoxy-6-methoxy-3,4-dihydroisoquinoline-2(1H)-yl)-2-methoxyethane-1-one]	92.2%	44.2%	80.7%	83.8%	95.3%	75.2%	-12.7%	6.8%	52.4%	0.00025 mM							
COc1cc2c(cc1OC1CCCC1)[C@H](CCc1c[nH]c3cc(C)ccc13)N(C=O)CC2 [(S)-C3, (S)-7-(cyclopentyloxy)-6-methoxy-1-(2-(6-methyl-1H-indol-3-yl)ethyl)-3,4-dihydroisoquinoline-2(1H)-formaldehyde]	24.1%	12.1%	79.2%	88.2%	100%	89.2%	6.3%	6%	95.1%								
COc1cc2c(cc1OC1CCCC1)C(CCc1c[nH]c3ccccc13)N(C=O)CC2 (centres unmarked) [Compound A2, 1-(2-(1H-indol-3-yl)ethyl)-7-(cyclopentyloxy)-6-metthoxy-3,4-dihydroisoquinoline-2(1H)-formaldehyde]	19.2%		43%	111.6%	113%	55.1%	9.7%	-4.4%	99.4%	0.00299 mM							
COc1cc2c(cc1OCc1ccccc1)C(CCc1c[nH]c3ccccc13)N(C=O)CC2 (centres unmarked) [Compound A5, 1-(2-(1H-indol-3-yl)ethyl)-7-(benzyloxy)-6-methoxy-3,4-dihydroisoquinoline-2(1H)-formaldehyde]	10.8%		23.8%	118.7%	120.8%	111.3%	-0.2%	-8.1%	79.3%								
COc1cc2c(cc1OC)C(CCc1c[nH]c3ccccc13)N(C(=O)c1ccncc1)CC2 (centres unmarked) [Compound B1]	30.7%	39.8%	58.5%	78%	74.9%	78.8%	-2.4%	-17.8%	67.9%								
COCCN1CCc2cc(OC)c(OC)cc2C1CCc1c[nH]c2ccccc12 (centres unmarked) [Compound B2, 1-(2-(1H-indol-3-yl)ethyl)-6,7-dimethoxy-2-(2-methoxyethyl)-1,2,3,4-tetrahydroisoquinoline]	19.2%		25.7%	88.3%	83.5%	71.4%	6.2%	18.8%	83.9%								
COc1cc2c(cc1OC)C(CCc1c[nH]c3ccccc13)N(C(=O)C1CCOCC1)CC2 (centres unmarked) [Compound B3, (1-(2-(1H-indol-3-yl)ethyl)-6,7-dimethoxy-3,4-dihydroisoquinoline-2(1H)-yl)(tetrahydro-2H-pyran-4-yl)ketone]	16.4%	33.3%	60.2%	97.7%	113.9%	79.6%	4.4%	10.8%	62.5%								
COCC(=O)N1CCc2cc(OC)c(OC)cc2C1CCc1c[nH]c2ccccc12 (centres unmarked) [Compound B4, 1-(1-(2-(1H-indol-3-yl)ethyl)-6,7-dimethoxy-3,4-dihydroisoquinoline-2(1H)-yl)-2-methoxyethane-1-one]	82.6%	44.1%	89.1%	116.6%	82.7%	71.5%	-9.2%	-11%	54.5%	0.0003 mM	8020 nM						
COC(=O)CN1CCc2cc(OC)c(OC)cc2C1CCc1c[nH]c2ccccc12 (centres unmarked) [Compound B5, methyl-2-(1-(2-(1H-indol-3-yl)ethyl)-6,7-dimethoxy-3,4-dihydroisoquinoline-2(1H)-yl) acetate]				86%	88.2%	103.8%						39.1%	21.7%	55.2%	-2.1%	20%	47.9%
COc1cc2c(cc1OC)C(CCc1c[nH]c3ccccc13)N(CC(F)(F)F)CC2 (centres unmarked) [Compound B6, 1-(2-(1H-indol-3-yl)ethyl)-6,7-dimethoxy-2-(2,2,2-trifluoroethyl)-1,2,3,4-tetrahydroisoquinoline]	19.5%		-23.2%	117.3%	87%	95.3%	8.2%	-7.1%	67.5%								
COc1cc2c(cc1OC)C(CCc1c[nH]c3ccccc13)N(CC1CCOCC1)CC2 (centres unmarked) [Compound B7, 1-(2-(1H-indol-3-yl)ethyl)-6,7-dimethoxy-2-((tetrahydro-2H-pyran-4-yl)methyl)-1,2,3,4-tetrahydroisoquinoline]	6.7%		36.6%	98.1%	114.1%	122.6%	4.3%	2.3%	82.2%								
COc1cc2c(cc1OC)C(CCc1c[nH]c3ccccc13)N(CCS(C)(=O)=O)CC2 (centres unmarked) [Compound B8, 1-(2-(1H-indol-3-yl)ethyl)-6,7-dimethoxy-2-(2-(methylsulfonyl)ethyl)-1,2,3,4-tetrahydroisoquinoline]	68.5%	31.6%	77.8%	113.4%	100.7%	100.5%	33.6%	36.1%	31.8%	0.00057 mM							
